Assay results as given in paper PMC3285241 (ACS chemical neuroscience, 2011).
pIC50: −log10 of the molar value. Where two headings read alike, the source gives them in different places.

Experiments:
[1] = test system: 68 GPCRs, ion channels and transporters; experiment: Ricerca Lead Profiling Screen; details: 10 μM; significant = inhibition of radio ligand binding > 50%
in vitro [2] = details: rat, plasma, pH 7.4
[3] = test system: low threshold spike (LTS) in STN neurons; experiment: Brain slice current clamp, low threshold spike; type: cell-based, rat; details: 3 uM with 0.5 uM TTX, n = 5; control 18.1 ± 2.2 mV
in vitro [4] = details: human, liver microsomes, pH 7.4
sigma 1 = sigma 1 (Homo sapiens, UniProt Q99720); experiment: Ricerca Lead Profiling Screen, sigma 1; type: binding; details: 10 μM
in vivo = details: male, Sprague-Dawley, rat, plasma, iv, 1 mg/kg
[5] = test system: T-type calcium currents in STN neurons; experiment: Brain slice voltage clamp, T-type calcium current in STN neurons; type: cell-based, rat
in vitro [6] = details: human, plasma, pH 7.4
sodium channel site 2 = experiment: Ricerca Lead Profiling Screen, sodium channel site 2; type: binding; details: 10 μM
Cav3.3 = Cav3.3 (Homo sapiens, UniProt Q9P0X4); experiment: Cav3.3 IonWorks Quattro population patch clamp electrophysiology; type: cell-based
[7] = test system: haloperidol-induced catalepsy in rats; experiment: Haloperidol-induced catalepsy; type: in vivo, rat; details: 1, 3, 10 and 30 mg/kg p.o.; haloperidol 0.75 mg/kg; comparable to A2A inhibitor 56.6 mg/kg p.o.
P450 2D6 = P450 2D6 (Homo sapiens, UniProt P10635); experiment: P450 inhibition 2D6
P450 2C9 = P450 2C9 (Homo sapiens, UniProt P11712); experiment: P450 inhibition 2C9
[8] = test system: rebound burst activity in STN neurons; experiment: Brain slice current clamp, rebound burst activity in STN neurons; type: cell-based, rat
P450 1A2 = biological target: T1, P450 1A2 (Homo sapiens, UniProt P05177); experiment: P450 inhibition 1A2
T1 sequence (P05177 1-516): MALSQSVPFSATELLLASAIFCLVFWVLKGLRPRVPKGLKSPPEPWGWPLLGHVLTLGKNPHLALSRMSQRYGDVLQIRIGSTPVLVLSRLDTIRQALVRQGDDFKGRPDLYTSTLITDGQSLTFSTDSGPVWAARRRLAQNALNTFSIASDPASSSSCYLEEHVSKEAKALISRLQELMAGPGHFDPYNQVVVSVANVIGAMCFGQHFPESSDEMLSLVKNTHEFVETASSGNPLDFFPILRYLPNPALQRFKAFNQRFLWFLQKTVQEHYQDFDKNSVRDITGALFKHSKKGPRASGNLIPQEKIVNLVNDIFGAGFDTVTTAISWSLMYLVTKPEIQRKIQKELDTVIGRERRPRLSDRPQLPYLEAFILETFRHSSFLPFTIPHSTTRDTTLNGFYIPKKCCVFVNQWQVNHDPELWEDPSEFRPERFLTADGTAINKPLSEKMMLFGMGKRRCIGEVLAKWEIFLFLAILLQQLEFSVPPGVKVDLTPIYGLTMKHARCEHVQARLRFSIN

[9] = biological target: Cav3.2 channel expressed in HEK293 cells (Homo sapiens, UniProt O95180); experiment: T-type calcium channel cell-based FDSS Ca2+ flux
in vitro [10] = details: rat, liver microsomes, pH 7.4
N-type calcium channels = N-type calcium channels (Rattus norvegicus, UniProt Q02294); experiment: Ricerca Lead Profiling Screen, N-type calcium channel; type: binding; details: read-out: % inhibition, N-type calcium channels
[11] = Plasma-brain exposure profile PK study; type: in vivo; details: male, Sprague-Dawley, rat, intraperitoneal, 10 mg/kg
hERG = hERG (Homo sapiens, UniProt Q12809); experiment: Ricerca Lead Profiling Screen, hERG; type: binding
[12] = Brain and plasma concentrations across the catalepsy dose range; type: in vivo; details: rat
[13] = Intrinsic clearance in rat liver microsomes; details: obtained from rat liver microsomes
L-type calcium channels = experiment: Ricerca Lead Profiling Screen, L-type calcium channel; type: binding; details: @10 μM
Cav3.2 = Cav3.2 (Homo sapiens, UniProt O95180); experiment: Cav3.2 IonWorks Quattro population patch clamp electrophysiology; type: cell-based; details: Cav3 subtype not stated
[14] = no reference given; cited from earlier work
[15] = read-out: IC50 in Ca2+ fluorescence assay, Cav3.2 HEK293, full CRC

Cav3.2 channel expressed in HEK293 cells, sequence (O95180 whole entry): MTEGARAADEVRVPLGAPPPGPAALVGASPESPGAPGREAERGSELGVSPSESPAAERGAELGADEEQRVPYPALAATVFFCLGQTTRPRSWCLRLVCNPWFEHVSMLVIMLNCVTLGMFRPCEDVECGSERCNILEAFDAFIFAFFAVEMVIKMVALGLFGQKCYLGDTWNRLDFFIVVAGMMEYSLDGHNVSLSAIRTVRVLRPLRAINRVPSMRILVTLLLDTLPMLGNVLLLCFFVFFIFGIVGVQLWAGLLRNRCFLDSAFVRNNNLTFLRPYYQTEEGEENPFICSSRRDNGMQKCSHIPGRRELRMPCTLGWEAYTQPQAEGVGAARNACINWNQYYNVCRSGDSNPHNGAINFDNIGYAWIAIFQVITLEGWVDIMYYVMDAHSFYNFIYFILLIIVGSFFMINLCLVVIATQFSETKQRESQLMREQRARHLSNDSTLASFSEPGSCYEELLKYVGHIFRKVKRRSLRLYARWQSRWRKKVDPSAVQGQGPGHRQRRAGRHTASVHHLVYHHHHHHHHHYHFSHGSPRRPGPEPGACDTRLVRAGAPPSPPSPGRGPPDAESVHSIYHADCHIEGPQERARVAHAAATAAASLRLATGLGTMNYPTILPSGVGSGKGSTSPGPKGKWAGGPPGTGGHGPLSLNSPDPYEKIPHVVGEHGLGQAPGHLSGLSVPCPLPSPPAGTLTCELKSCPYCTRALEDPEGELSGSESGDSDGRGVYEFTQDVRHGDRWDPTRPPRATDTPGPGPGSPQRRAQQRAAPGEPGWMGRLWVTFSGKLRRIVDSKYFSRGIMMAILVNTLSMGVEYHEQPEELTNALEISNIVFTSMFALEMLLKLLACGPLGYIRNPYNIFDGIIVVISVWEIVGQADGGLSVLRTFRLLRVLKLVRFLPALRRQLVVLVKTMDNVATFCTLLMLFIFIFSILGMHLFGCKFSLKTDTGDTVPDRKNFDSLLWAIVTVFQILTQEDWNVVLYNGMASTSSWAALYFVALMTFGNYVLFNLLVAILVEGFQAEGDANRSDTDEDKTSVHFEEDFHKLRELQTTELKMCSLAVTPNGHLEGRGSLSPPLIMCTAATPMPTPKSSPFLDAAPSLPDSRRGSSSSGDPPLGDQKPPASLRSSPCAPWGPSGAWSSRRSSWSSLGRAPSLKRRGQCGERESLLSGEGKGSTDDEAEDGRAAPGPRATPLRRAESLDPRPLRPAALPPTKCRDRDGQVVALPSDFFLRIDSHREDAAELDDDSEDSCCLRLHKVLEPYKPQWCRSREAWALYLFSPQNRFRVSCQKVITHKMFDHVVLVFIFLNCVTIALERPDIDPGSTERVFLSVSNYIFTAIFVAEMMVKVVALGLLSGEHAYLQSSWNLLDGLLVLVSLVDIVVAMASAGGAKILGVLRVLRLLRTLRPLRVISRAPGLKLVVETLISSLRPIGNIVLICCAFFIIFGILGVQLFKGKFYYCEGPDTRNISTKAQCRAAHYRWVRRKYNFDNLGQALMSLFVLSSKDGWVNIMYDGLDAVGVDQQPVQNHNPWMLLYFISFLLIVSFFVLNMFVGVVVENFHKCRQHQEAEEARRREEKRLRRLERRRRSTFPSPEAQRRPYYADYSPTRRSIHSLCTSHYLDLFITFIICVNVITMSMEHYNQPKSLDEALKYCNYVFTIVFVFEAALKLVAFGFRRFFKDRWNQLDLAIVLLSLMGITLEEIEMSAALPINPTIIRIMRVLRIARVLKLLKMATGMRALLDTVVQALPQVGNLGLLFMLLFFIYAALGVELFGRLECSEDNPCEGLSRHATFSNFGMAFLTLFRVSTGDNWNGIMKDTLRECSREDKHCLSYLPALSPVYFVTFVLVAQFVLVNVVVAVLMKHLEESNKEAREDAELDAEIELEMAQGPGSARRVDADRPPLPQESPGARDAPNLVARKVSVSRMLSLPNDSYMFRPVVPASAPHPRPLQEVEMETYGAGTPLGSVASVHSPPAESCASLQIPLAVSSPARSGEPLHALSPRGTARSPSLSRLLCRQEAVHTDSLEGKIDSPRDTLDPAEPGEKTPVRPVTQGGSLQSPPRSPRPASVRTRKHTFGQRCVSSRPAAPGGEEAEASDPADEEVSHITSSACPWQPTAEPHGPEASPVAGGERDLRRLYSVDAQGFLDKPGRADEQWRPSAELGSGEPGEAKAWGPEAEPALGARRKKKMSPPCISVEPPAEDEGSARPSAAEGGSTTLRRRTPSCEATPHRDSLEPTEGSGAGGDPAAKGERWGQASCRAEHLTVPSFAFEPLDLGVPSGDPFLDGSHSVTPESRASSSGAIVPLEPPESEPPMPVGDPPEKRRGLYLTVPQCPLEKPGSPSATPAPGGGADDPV
P450 2D6, sequence (P10635 whole entry): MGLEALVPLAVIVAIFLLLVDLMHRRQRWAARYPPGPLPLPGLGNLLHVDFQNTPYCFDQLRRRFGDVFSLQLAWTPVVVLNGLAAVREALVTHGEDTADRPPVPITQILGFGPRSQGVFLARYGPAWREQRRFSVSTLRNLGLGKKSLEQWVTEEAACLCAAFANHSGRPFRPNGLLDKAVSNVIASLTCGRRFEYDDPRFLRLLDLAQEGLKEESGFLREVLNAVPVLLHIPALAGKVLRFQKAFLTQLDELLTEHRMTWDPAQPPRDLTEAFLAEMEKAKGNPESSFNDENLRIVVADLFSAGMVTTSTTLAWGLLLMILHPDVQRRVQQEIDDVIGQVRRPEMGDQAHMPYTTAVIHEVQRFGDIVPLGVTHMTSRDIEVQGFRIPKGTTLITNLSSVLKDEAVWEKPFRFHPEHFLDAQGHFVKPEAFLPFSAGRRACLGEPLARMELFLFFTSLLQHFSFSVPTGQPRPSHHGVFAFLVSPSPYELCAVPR
hERG, sequence (Q12809 whole entry): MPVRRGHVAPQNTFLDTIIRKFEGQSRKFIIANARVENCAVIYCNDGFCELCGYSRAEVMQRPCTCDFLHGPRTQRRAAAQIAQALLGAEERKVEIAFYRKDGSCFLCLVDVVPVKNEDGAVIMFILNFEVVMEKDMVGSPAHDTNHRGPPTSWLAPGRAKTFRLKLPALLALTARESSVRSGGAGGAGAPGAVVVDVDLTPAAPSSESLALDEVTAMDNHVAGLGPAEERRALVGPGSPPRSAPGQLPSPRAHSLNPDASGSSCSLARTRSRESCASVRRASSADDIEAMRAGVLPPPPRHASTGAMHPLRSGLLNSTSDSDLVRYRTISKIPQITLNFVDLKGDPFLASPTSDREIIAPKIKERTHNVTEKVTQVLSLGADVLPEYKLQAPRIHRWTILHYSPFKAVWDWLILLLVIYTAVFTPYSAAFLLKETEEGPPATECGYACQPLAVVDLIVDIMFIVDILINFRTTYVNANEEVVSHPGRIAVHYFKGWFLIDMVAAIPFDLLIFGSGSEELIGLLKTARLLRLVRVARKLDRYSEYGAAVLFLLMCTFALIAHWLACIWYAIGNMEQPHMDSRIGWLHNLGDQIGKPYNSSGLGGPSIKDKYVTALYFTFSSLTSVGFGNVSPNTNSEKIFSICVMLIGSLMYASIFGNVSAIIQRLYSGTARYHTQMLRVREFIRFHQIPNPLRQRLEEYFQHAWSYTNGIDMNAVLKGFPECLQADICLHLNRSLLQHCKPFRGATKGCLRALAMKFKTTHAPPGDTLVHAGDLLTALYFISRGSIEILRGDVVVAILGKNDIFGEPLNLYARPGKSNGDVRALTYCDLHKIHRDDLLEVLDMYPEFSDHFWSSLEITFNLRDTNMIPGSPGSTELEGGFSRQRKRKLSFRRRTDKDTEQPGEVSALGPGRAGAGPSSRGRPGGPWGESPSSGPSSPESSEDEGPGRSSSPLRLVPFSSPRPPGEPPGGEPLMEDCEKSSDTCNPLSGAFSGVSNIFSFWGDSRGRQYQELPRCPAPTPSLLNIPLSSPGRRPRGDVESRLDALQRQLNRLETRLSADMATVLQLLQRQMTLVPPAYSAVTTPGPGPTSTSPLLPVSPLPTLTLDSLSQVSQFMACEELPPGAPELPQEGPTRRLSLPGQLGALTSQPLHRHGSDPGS
Cav3.2, sequence (O95180 whole entry): as the sequence (O95180 whole entry) above
sigma 1, sequence (Q99720 whole entry): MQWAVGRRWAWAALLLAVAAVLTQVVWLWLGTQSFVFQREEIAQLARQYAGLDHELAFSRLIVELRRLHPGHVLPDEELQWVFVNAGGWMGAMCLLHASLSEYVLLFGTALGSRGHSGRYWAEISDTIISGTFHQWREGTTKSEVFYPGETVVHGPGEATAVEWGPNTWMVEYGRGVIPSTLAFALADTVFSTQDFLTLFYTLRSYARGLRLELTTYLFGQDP
P450 2C9, sequence (P11712 whole entry): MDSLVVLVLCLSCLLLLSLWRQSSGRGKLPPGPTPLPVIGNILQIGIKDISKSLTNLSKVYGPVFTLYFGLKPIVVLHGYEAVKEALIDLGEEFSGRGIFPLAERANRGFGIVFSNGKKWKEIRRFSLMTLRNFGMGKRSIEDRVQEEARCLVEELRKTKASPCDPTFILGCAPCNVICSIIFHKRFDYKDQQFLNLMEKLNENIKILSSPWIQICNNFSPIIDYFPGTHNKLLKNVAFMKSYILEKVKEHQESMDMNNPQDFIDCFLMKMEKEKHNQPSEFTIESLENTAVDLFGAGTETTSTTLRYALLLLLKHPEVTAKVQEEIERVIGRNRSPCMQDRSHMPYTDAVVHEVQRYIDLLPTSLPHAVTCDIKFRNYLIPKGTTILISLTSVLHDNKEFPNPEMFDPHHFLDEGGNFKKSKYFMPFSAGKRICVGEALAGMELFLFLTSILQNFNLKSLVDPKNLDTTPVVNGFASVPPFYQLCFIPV

Q: With `CC(C)(C)CCN1CC2C(CNC(=O)c3cc(Cl)cc(Cl)c3)C2C1` (stereo not shown) [ML218, 3,5-dichloro-N-((3-(3,3-dimethylbutyl)-3-azabicyclo[3.1.0]hexan-6-yl)methyl)benzamide] as the molecule, how does the “Number of targets significantly bound in 68-assay panel” value [1] read?
A: Its value is “only significantly bind two targets”.

Q: What about the fraction unbound at 4 h (in vitro [2]) of the same molecule?
A: The fraction unbound at 4 h was 0.091.

Q: What about the “Amplitude of LTS” value [3] of the same molecule?
A: The value was 8.7 ± 2.1 mV.

Q: And the CLint scaled at 1 μM (in vitro [4])?
A: The CLint scaled at 1 μM was 12.7 mL/min/kg.

Q: What about the “Binding to sigma 1” value (sigma 1) of the same molecule?
A: Its value is “significantly bind”.

Q: And the MRT (in vivo)?
A: The MRT was roughly 7 h.

Q: And the clearance (in vivo)?
A: Its clearance is 56 mL/min/kg.

Q: What about the half-life (in vivo) of the same molecule?
A: Its half-life is 7 h.

Q: What about the “T-currents, % of the control value” ([5]; 3 uM, n = 7) of the same molecule?
A: The value was 45.1 ± 5.1%.

Q: And the “Reduction of T-type Ca2+ current” value ([5]; 3 μM, voltage clamp, bath application)?
A: Its value is ~ 45%.

Q: And the fraction unbound at 4 h (in vitro [6])?
A: The fraction unbound at 4 h was 0.033.

Q: What about the “Binding to sodium channel site 2” value (sodium channel site 2) of the same molecule?
A: The value was “significantly bind”.

Q: And the pIC50 (Cav3.3)?
A: Its pIC50 is 6.56.

Q: What about the “Reversal of haloperidol-induced catalepsy” value [7] of the same molecule?
A: The value was “reversed cataleptic behavior”.

Q: And the pIC50 (P450 2D6)?
A: The pIC50 was 5.77.

Q: What about the pIC50 (P450 2C9) of the same molecule?
A: The pIC50 was less than 4.52.

Q: What about the “Depression of rebound burst activity” value ([8]; 3 μM, -100 pA followed by depolarizing current) of the same molecule?
A: Its value is greater than 60%.

Q: What about the “Number of rebound spikes” value ([8]; 3 uM, n = 6, control 16.0 ± 2.8 spikes/burst) of the same molecule?
A: The value was 5.7 ± 0.5 spikes/burst.

Q: And the pIC50 (P450 1A2)?
A: Its pIC50 is 4.97.

Q: What about the pIC50 [9] of the same molecule?
A: The pIC50 was 6.82.

Q: What about the CLint scaled at 1 μM (in vitro [10]) of the same molecule?
A: Its CLint scaled at 1 μM is 115 mL/min/kg.

Q: And the inhibition at 10 µM (N-type calcium channels)?
A: The inhibition at 10 µM was 49%.

Q: And the Kp [11]?
A: The Kp was 7.4.

Q: And the inhibition at 10 µM (hERG)?
A: The inhibition at 10 µM was 48%.

Q: What about the “[brain]” value ([12]; 3 mg/kg p.o.) of the same molecule?
A: Its value is 1.66 µM.

Q: What about the “[plasma]” value ([12]; 3 mg/kg p.o.) of the same molecule?
A: Its value is 98 nM.

Q: What about the “[brain]” value ([12]; 10 mg/kg p.o.) of the same molecule?
A: The value was 5.03 µM.

Q: And the “[plasma]” value ([12]; 10 mg/kg p.o.)?
A: The value was 282 nM.

Q: What about the “[brain]” value ([12]; 30 mg/kg p.o.) of the same molecule?
A: The value was 17.7 µM.

Q: And the “[plasma]” value ([12]; 30 mg/kg p.o.)?
A: Its value is 1200 nM.

Q: And the “predicted hepatic clearance CLHEP” value [13]?
A: The value was 43 mL/min/kg.

Q: What about the “% inhibition, L-type calcium channels” value (L-type calcium channels) of the same molecule?
A: Its value is 17%.

Q: Which “T-type Ca2+ channel inhibition, result in words” value ([9]; 3-amino piperidine library) does the source give for `CC(C)(C)CCN1CCC[C@@H](NC(=O)COc2ccc(F)cc2Cl)C1` [CID45115614] here?
A: Its value is “devoid of activity”.

Q: For `CC(C)(C)Cc1nnc(NC(=O)COc2ccc(Cl)cc2Cl)o1` [compound 18], which “Potency in patch EP relative to Ca2+ fluorescence, in words” value (Cav3.2) is on record?
A: Its value is “significant right-shift in potency”.

Q: What about the pIC50 [9, 15] of the same molecule?
A: Its pIC50 is 6.09.

Q: Which “Penetration into CNS” value [14] does the source give for `COCC(=O)O[C@]1(CCN(C)CCCc2nc3ccccc3[nH]2)CCc2cc(F)ccc2[C@@H]1C(C)C` [compound 3, mibefradil] here?
A: The value was “poor penetration into CNS”.

Q: With `CC(C)(C)CCN1CCC[C@H](NC(=O)COc2ccc(F)cc2Cl)C1` [compound 23] as the molecule, how does the pIC50 [9, 15] read?
A: The pIC50 was 5.62.
